Test results reported in the supplement of paper PMC11061612.

How the values were obtained:
COLO-679 (Melanoma) = assay: Bliss excess, mean over the matrix (fraction); higher = more synergy
How it was run: (§1)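 Bliss excess equals the observed combination effect minus the expected value EA + EB − EA·EB, where EA and EB are the effects of each agent alone. Combination Emax is the second-highest inhibition within the matrix. Inhibition was scaled from CellTiter-Glo 2.0 luminescence, with 0 set by vehicle wells and 1 by blank wells, after 72 hours of two-drug dosing of cells plated in 1536-well plates.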

[1] = system: Ca-Ski (Cervical Carcinoma); assay: as above
How it was run: as §1

[2] = system: SW872 (Other Solid Carcinomas); assay: combination Emax (second highest fraction inhibited in the dose matrix, 72 h); higher = more inhibition; extreme values may be limits of the assay
How it was run: as §1

[3] = system: DU-145 (Prostate Carcinoma); assay: as above
How it was run: as §1

[4] = system: A4-Fuk (B-Lymphoblastic Leukemia); assay: as above
How it was run: as §1

SK-N-AS (Neuroblastoma) = assay: as above
How it was run: as §1

[5] = system: ME-180 (Cervical Carcinoma); assay: as above
How it was run: as §1

[6] = system: NCI-H522 (Lung Adenocarcinoma); assay: as above
How it was run: as §1

[7] = system: Ca-Ski (Cervical Carcinoma); assay: as above
How it was run: as §1

[8] = system: MV-4-11 (Acute Myeloid Leukemia); assay: as above
How it was run: as §1

[9] = system: ML-2 (Acute Myeloid Leukemia); assay: as above
How it was run: as §1

| Structure (SMILES) | Bliss excess (COLO-679 (Melanoma)) | Bliss excess [1] | combination Emax [2] | combination Emax [3] | combination Emax [4] | combination Emax (SK-N-AS (Neuroblastoma)) | combination Emax [5] | combination Emax [6] | combination Emax [7] | combination Emax [8] | combination Emax [9] |
| --- | --- | --- | --- | --- | --- | --- | --- | --- | --- | --- | --- |
| C=CCn1c(=O)c2cnc(Nc3ccc(N4CCN(C)CC4)cc3)nc2n1-c1cccc(C(C)(C)O)n1 [AZD1775] + CCc1c2c(nc3ccc(O)cc13)-c1cc3c(c(=O)n1C2)COC(=O)[C@]3(O)CC [SN-38] (first compound max 1 µM, partner max 0.3 µM) | -0.171 | 0.0285 | 0.933 | 0.598 | 1 | 0.844 | 0.973 | 0.7 | 1 | 0.999 | 1 |
| C=CCn1c(=O)c2cnc(Nc3ccc(N4CCN(C)CC4)cc3)nc2n1-c1cccc(C(C)(C)O)n1 [AZD1775] + Nc1ccn([C@@H]2O[C@H](CO)[C@@H](O)C2(F)F)c(=O)n1 [Gemcitabine] (first compound max 1 µM, partner max 0.3 µM) | -0.067 | 0.0644 | 0.825 | 0.542 | 0.965 | 0.704 | 0.94 | 0.608 | 0.828 | 1 | 1 |
| CN(CCO)CC[C@H](CSc1ccccc1)Nc1ccc(S(=O)(=O)NC(=O)c2ccc(N3CCC([C@@H](O)c4ccccc4-c4ccc(Cl)cc4)CC3)cc2)cc1S(=O)(=O)C(F)(F)F [AZD4320] + CS(=O)(=O)CCNCc1ccc(-c2ccc3ncnc(Nc4ccc(OCc5cccc(F)c5)c(Cl)c4)c3c2)o1 [Lapatinib] (first compound max 1 µM, 7x7, partner max 10 µM) | -0.106 | 0.127 | 0.198 | 0.174 | 0.931 | 0.197 | 0.7 | 0.237 | 1 | 1 | 1 |
| Cc1c2c(nn1C)CSCc1cc(n(C)n1)CSc1cc(c3ccccc3c1)OCCCc1c(C(=O)O)n(C)c3c-2c(Cl)ccc13 [AZD5991] + CC(=O)O[C@H]1C(=O)[C@@]2(C)[C@H]([C@H](OC(=O)c3ccccc3)[C@]3(O)C[C@H](OC(=O)[C@H](O)[C@@H](NC(=O)c4ccccc4)c4ccccc4)C(C)=C1C3(C)C)[C@]1(OC(C)=O)CO[C@@H]1C[C@@H]2O [Paclitaxel] (first compound max 1 µM, 7x7, partner max 3 µM) | 0.0314 | 0.0422 | 0.869 | 0.686 | 1 | 0.83 | 0.7 | 0.969 | 0.919 | 1 | 1 |
| Cc1c2c(nn1C)CSCc1cc(n(C)n1)CSc1cc(c3ccccc3c1)OCCCc1c(C(=O)O)n(C)c3c-2c(Cl)ccc13 [AZD5991] + CS(=O)(=O)CCNCc1ccc(-c2ccc3ncnc(Nc4ccc(OCc5cccc(F)c5)c(Cl)c4)c3c2)o1 [Lapatinib] (first compound max 1 µM, 7x7, partner max 10 µM) | -0.149 | 0.0164 | 0.32 | 0.198 | 1 | 0.395 | 0.492 | 0.626 | 0.735 | 1 | 1 |
| Cc1c2c(nn1C)CSCc1cc(n(C)n1)CSc1cc(c3ccccc3c1)OCCCc1c(C(=O)O)n(C)c3c-2c(Cl)ccc13 [AZD5991] + Nc1ccn([C@@H]2O[C@H](CO)[C@@H](O)C2(F)F)c(=O)n1 [Gemcitabine] (first compound max 1 µM, 7x7, partner max 0.3 µM) | -0.0703 | 0.0354 | 0.811 | 0.441 | 1 | 0.717 | 0.754 | 0.784 | 0.757 | 1 | 1 |
| C[C@@H]1COCCN1c1cc(C2([S@](C)(=N)=O)CC2)nc(-c2ccnc3[nH]ccc23)n1 [AZD6738] + C1CC(C1)(C(=O)[O-])C(=O)[O-].N.N.[Pt+2] [Carboplatin] (first compound max 10 µM, 7x7, partner max 10 µM) | -0.0944 | 0.0041 | 0.456 | 0.351 | 0.823 | 0.69 | 0.663 | 0.194 | 0.649 | 0.974 | 0.916 |
| C[C@@H]1COCCN1c1cc(C2([S@](C)(=N)=O)CC2)nc(-c2ccnc3[nH]ccc23)n1 [AZD6738] + Nc1ccn([C@@H]2O[C@H](CO)[C@@H](O)C2(F)F)c(=O)n1 [Gemcitabine] (first compound max 10 µM, 7x7, partner max 0.3 µM) | -0.0611 | 0.0982 | 0.907 | 0.583 | 0.962 | 0.801 | 0.913 | 0.912 | 0.883 | 1 | 1 |
| C[C@@H](Nc1cc(F)cc(F)c1)c1cc(C(=O)N(C)C)cc2c(=O)cc(N3CCOCC3)oc12 [AZD8186] + C1CN(CCC1(C(=O)N[C@@H](CCO)C2=CC=C(C=C2)Cl)N)C3=NC=NC4=C3C=CN4 [AZD5363] (first compound max 10 µM, 7x7, partner max 10 µM) | -0.12 | -0.0032 | 0.427 | 0.189 | 0.76 | 0.135 | 0.579 | 0.0756 | 0.463 | 0.731 | 0.558 |
| C[C@@H](Nc1cc(F)cc(F)c1)c1cc(C(=O)N(C)C)cc2c(=O)cc(N3CCOCC3)oc12 [AZD8186] + CC(=O)c1c(C)c2cnc(Nc3ccc(N4CCNCC4)cn3)nc2n(C2CCCC2)c1=O [Palbociclib] (first compound max 10 µM, 7x7, partner max 10 µM) | -0.0735 | -0.0285 | 0.359 | 0.417 | 0.706 | 0.281 | 0.391 | 0.147 | 0.484 | 0.859 | 0.686 |
| C[C@@H](Oc1cc(-c2cnn(C3CCNCC3)c2)cnc1N)c1c(Cl)ccc(F)c1Cl [Crizotinib] + CC1=C(C(=CC=C1)Cl)NC(=O)C2=CN=C(S2)NC3=CC(=NC(=N3)C)N4CCN(CC4)CCO [Dasatinib] (first compound max 10 µM, 7x7, partner max 2 µM) | -0.0604 | 0.0454 | 0.615 | 0.462 | 0.922 | 0.491 | 0.644 | 0.339 | 0.942 | 0.985 | 0.969 |
| C[C@@H](Oc1cc(-c2cnn(C3CCNCC3)c2)cnc1N)c1c(Cl)ccc(F)c1Cl [Crizotinib] + Cn1cnc2c(F)c(Nc3ccc(Br)cc3Cl)c(C(=O)NOCCO)cc21 [Selumetinib] (first compound max 10 µM, 7x7, partner max 10 µM) | -0.0369 | 0.0464 | 0.338 | 0.12 | 0.942 | 0.585 | 0.269 | 0.117 | 0.551 | 1 | 1 |
| CS(=O)(=O)CCNCc1ccc(-c2ccc3ncnc(Nc4ccc(OCc5cccc(F)c5)c(Cl)c4)c3c2)o1 [Lapatinib] + Cn1cnc2c(F)c(Nc3ccc(Br)cc3Cl)c(C(=O)NOCCO)cc21 [Selumetinib] (first compound max 10 µM, 7x7, partner max 10 µM) | -0.116 | -0.0185 | 0.25 | 0.171 | 0.979 | 0.441 | 0.476 | 0.257 | 0.671 | 0.642 | 0.715 |
| O=C(c1cc(Cc2n[nH]c(=O)c3ccccc23)ccc1F)N1CCN(C(=O)C2CC2)CC1 [Olaparib] + CC1(C)CCC(CN2CCN(c3ccc(C(=O)NS(=O)(=O)c4ccc(NCC5CCOCC5)c([N+](=O)[O-])c4)c(Oc4cnc5[nH]ccc5c4)c3)CC2)=C(c2ccc(Cl)cc2)C1 [Venetoclax] (first compound max 10 µM, 7x7, partner max 1 µM) | -0.0643 | -0.0069 | 0.141 | 0.126 | 0.301 | 0.106 | 0.14 | 0.0786 | 0.162 | 1 | 0.961 |
| O=C(c1cc(Cc2n[nH]c(=O)c3ccccc23)ccc1F)N1CCN(C(=O)C2CC2)CC1 [Olaparib] + CN(CC[C@H](CSC1=CC=CC=C1)NC2=C(C=C(C=C2)S(=O)(=O)NC(=O)C3=CC=C(C=C3)N4CCC(CC4)[C@H](C5=CC=CC=C5C6=CC=C(C=C6)Cl)O)S(=O)(=O)C(F)(F)F)CCO [AZD4320] (first compound max 10 µM, 7x7, partner max 1 µM) | -0.0667 | 0.0083 | 0.133 | 0.0992 | 0.0633 | 0.112 | 0.18 | 0.0607 | 0.26 | 1 | 0.979 |
| O=C(c1cc(Cc2n[nH]c(=O)c3ccccc23)ccc1F)N1CCN(C(=O)C2CC2)CC1 [Olaparib] + COc1nnc2ccc(N3CCC(c4ccc(OCCN5CCN(C)C(=O)[C@H]5C)cc4)CC3)nn12 [AZD5153] (first compound max 10 µM, 7x7, partner max 1 µM) | -0.0654 | -0.0179 | 0.568 | 0.219 | 0.876 | 0.326 | 0.424 | 0.309 | 0.481 | 1 | 0.917 |
| O=C(c1cc(Cc2n[nH]c(=O)c3ccccc23)ccc1F)N1CCN(C(=O)C2CC2)CC1 [Olaparib] + Cc1c2c(nn1C)CSCc1cc(n(C)n1)CSc1cc(c3ccccc3c1)OCCCc1c(C(=O)O)n(C)c3c-2c(Cl)ccc13 [AZD5991] (first compound max 10 µM, 7x7, partner max 1 µM) | -0.0555 | -0.0275 | 0.157 | 0.121 | 1 | 0.258 | 0.1 | 0.479 | 0.146 | 1 | 1 |
| Cc1nc(-c2cn3c(n2)-c2ccc(-c4cnn(C(C)(C)C(N)=O)c4)cc2OCC3)n(C(C)C)n1 [Taselisib] + O=C(Nc1ccc2[nH]nc(-c3ccncc3)c2c1)[C@@H]1CCN(CC(=O)N2CCN(c3ccc(-c4ncccn4)cc3)CC2)C1 [SCH772984] (first compound max 10 µM, 7x7, partner max 5 µM) | -0.0148 | 0.0833 | 0.636 | 0.342 | 1 | 0.494 | 0.732 | 0.339 | 0.833 | 0.905 | 1 |
